Test results as given in patent US20240374612A1, “IMIDAZOBENZO[…] TREATMENT OF COGNITIVE AND MOOD SYMPTOMS” (UWM Research Foundation, Inc., priority 2021, published 2024).
Entries after “also recorded” stand apart in the source; their conditions may differ.

System: C57/Bl6 mice subjected to chronic restraint stress (working memory deficit)
Test: Y-maze alternation task after chronic restraint stress (CRS)
Type: in vivo
Settings: acute, 30 min before testing, vs CRS vehicle
Procedure: Young Animals and chronic stress procedure: C57/Bl6 mice, males and females at 8 weeks old and are kept in normal housing conditions (12 h light ON cycle starting at 7 am/water and food ad libitum) for one week. During this week, animals are single housed and handled to reduce the anxiety-like response toward the experimenter. To induce a working memory deficit, mice are subjected to a chronic restraint stress protocol (CRS). They are placed in a 50 mL Falcon® tube, twice a day, for 1 hour during their diurnal cycle. The time of occurrence of the stress is randomized every day to avoid predictability. CRS is not applied on testing days. Y-maze test occurs 15 hours minimum after the last stressor.
Protocol: Mice are first habituated to the Y-maze apparatus and distal cues during 2 consecutive days over a 10 min free exploration session (one session per day). The next day, animals perform a training session consisting in seven successive trials separated by a 30 s inter-trial interval (ITI); during this training session, mice are familiarized with the experimental procedure (opening and closing of the doors and confinement into the goal arms). For each trial, mice remain in the start-box for a 30 s ITI. Then, the door is opened and the mouse is allowed to enter freely one of the two goal arms; the chosen arm is closed and the choice is recorded. After a 30 s confinement period into the chosen arm, the mouse is removed and brought back to the start-box for a second trial identical to the first one and this procedure is repeated over the series of trials.
The same general procedure used in the training session is implemented 24 h later, except that the ITI was lengthened to 90 s. For this experiment, animals are acutely injected i.p. with vehicle or drug, 30 minutes before the beginning of the test. To dissociate memory deficits from an eventual progressive loss of motivation to alternate over the series, an 8th trial is added to the series which is separated from the 7th trial by a shorter ITI (5 s). All animals failing to alternate at the 8th trial are excluded. The mean alternation rate is calculated and is expressed in percentage (number of alternation done by the animal/total number of alternation possible×100)±SEM. The percentage of alternation during the entire task is considered as an index of working memory performance (50% of being a random alternation rate). Factorial ANOVA is applied to the data to reveal differences between groups. If the ANOVA is significant for group effect (p<0.05), Scheffe post-hoc analysis are conducted to identify which groups are different from each other.
Drug preparation and administration: All drugs are diluted in a vehicle solution containing 85% H2O, 14% propylene glycol (Sigma Aldrich) and 1% Tween 80 (Sigma Aldrich). Working solutions are prepared at a concentration of 10 mg/mL and administered i.p. adjusted to the body weight of each animal. Doses used are either 1, 5, 10 or 20 mg/kg. For all Y maze experiments, animals are acutely injected i.p. with vehicle or drug, 30 minutes before the beginning of the test.

Row | SMILES | reversal of CRS-induced reduction of alternation rate (Y-maze) (10 mg/kg i.p.) | reversal of CRS-induced reduction of alternation rate (Y-maze) (30 mg/kg i.p.) | reversal of CRS-induced reduction of alternation rate (Y-maze) (3 mg/kg i.p.) | reversal of CRS-induced reduction of alternation rate (Y-maze) (5 mg/kg i.p.)
1 | C#Cc1ccc2c(c1)C(c1ccccc1Cl)=N[C@@H](C)c1c(-c3nc(C)no3)ncn1-2 [FR-PM-III-57S, (S)-5-(6-(2-chlorophenyl)-8-ethynyl-4-methyl-4H-benzo[f]imidazo[1,5-a][1,4]diazepin-3-yl)-3-methyl-1,2,4-oxadiazole] | significantly reversed; also recorded: significantly improved alternation rate | trend level effect |  | 
2 | Cc1noc(-c2ncn3c2[C@@H](C)N=C(c2ccccc2F)c2cc(Br)ccc2-3)n1 [GL-III-60, (R)-5-(8-Bromo-6˜(2-fluorophenyl)-4-methyl-4H-benzo[f]imidazo[1,5-a][1,4]diazepin-3-yl)-3-methyl-1,2,4-oxadiazole] | reversed | reversed |  | 
3 | CCc1noc(-c2ncn3c2[C@@H](C)N=C(c2ccccc2F)c2cc(C4CC4)ccc2-3)n1 [GL-IV-03, (R)-5-(8-Cyclopropyl-6-(2-fluorophenyl)-4-methyl-4H-benzo[f]imidazo[1,5-a][1,4]diazepin-3-yl)-3-ethyl-1,2,4-oxadiazole] |  | reversed | reversed | 
4 | C[C@H]1N=C(c2ccccc2F)c2cc(-c3ccccc3)ccc2-n2cnc(C(=O)N(C)C)c21 [MYM-III-41, (R)-6-(2-fluorophenyl)-N,N,4-trimethyl-8-phenyl-4H-benzo[f]imidazo[1,5-a][1,4]diazepine-3-carboxamide] | reversed |  |  | reversed
5 | CCc1noc(-c2ncn3c2CN=C(c2ccccc2F)c2cc(C4CC4)ccc2-3)n1 [MYM-III-43, 5-(8-cyclopropyl-6-(2-fluorophenyl)-4H-benzo[f]imidazo[1,5-a][1,4]diazepin-3-yl)-3-ethyl-1,2,4-oxadiazole] | reversed | reversed | reversed | 
6 | CC(C)c1noc(-c2ncn3c2[C@@H](C)N=C(c2ccccc2F)c2cc(Cl)ccc2-3)n1 [MYM-IV-46, (R)-5-(8-chloro-6-(2-fluorophenyl)-4-methyl-4H-benzo[f]imidazo[1,5-a][1,4]diazepin-3-yl)-3-isopropyl-1,2,4-oxadiazole] | significantly reversed; also recorded: improved alternation rate | trend level effect | no significant effect | 
7 | C[C@H]1N=C(c2ccccc2F)c2cc(Cl)ccc2-n2cnc(-c3nc(C4CC4)no3)c21 [MYM-IV-47, (R)-5-(8-chloro-6-(2-fluorophenyl)-4-methyl-4H-benzo[f]imidazo[1,5-a][1,4]diazepin-3-yl)-3-cyclopropyl-1,2,4-oxadiazole] | significantly reversed | significantly reversed | no significant effect | 
8 | C#Cc1ccc2c(c1)C(c1ccccc1F)=N[C@H](C)c1c(-c3nc(C4CC4)no3)ncn1-2 [MYM-V-28, (R)-3-cyclopropyl-5-(8-ethynyl-6-(2-fluorophenyl)-4-methyl-4H-benzo[f]imidazo [1,5-a][1,4]diazepin-3-yl)-1,2,4-oxadiazole] | significantly reversed; also recorded: significantly improved alternation rate | significantly reversed; also recorded: significantly improved alternation rate |  | 
9 | C#Cc1ccc2c(c1)C(c1ccccc1Cl)=N[C@H](C)c1c(C(=O)N(C)C)ncn1-2 [PM-II-26, (R)-6-(2-chlorophenyl)-8-ethynyl-N,N,4-trimethyl-4H-benzo[f]imidazo[1,5-a][1,4]diazepine-3-carboxamide] | reversed (p<0.001) | a trend was observed; also recorded: reversed (trend: p=0.1) |  | 
